According to PubChem BioAssay (NCI):
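Values below derive from 48-hour exposures of cells grown in 96-well plates, with endpoints linearly interpolated between the two concentrations bracketing the appropriate inhibition level. At the GI50, growth is halved. TGI marks complete inhibition of growth.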

Tests used:
Test in all cases: NCI tumour cell line growth inhibition, 48 h
MALME-3M melanoma = test system: MALME-3M melanoma
OVCAR-8 ovarian = test system: OVCAR-8 ovarian
HOP-92 NSCLC = test system: HOP-92 NSCLC
ACHN renal = test system: ACHN renal
NCI-H522 lung = test system: NCI-H522 lung
HCT-15 colon = test system: HCT-15 colon
NCI-H460 lung = test system: NCI-H460 lung
SK-MEL-2 melanoma = test system: SK-MEL-2 melanoma
RXF 393 renal = test system: RXF 393 renal
SK-MEL-28 melanoma = test system: SK-MEL-28 melanoma
OVCAR-5 ovarian = test system: OVCAR-5 ovarian
SF-539 CNS = test system: SF-539 CNS
HOP-62 NSCLC = test system: HOP-62 NSCLC
NCI-H226 lung = test system: NCI-H226 lung
HT29 colon = test system: HT29 colon
A549 NSCLC = test system: A549 NSCLC
MDA-MB-435 = test system: MDA-MB-435
SNB-19 CNS = test system: SNB-19 CNS
786-0 renal = test system: 786-0 renal
T-47D breast = test system: T-47D breast
M14 melanoma = test system: M14 melanoma
A498 renal = test system: A498 renal
HL-60(TB) leukemia = test system: HL-60(TB) leukemia
U251 CNS = test system: U251 CNS
MDA-MB-231 breast = test system: MDA-MB-231 breast
LOX IMVI melanoma = test system: LOX IMVI melanoma
UACC-257 melanoma = test system: UACC-257 melanoma
IGROV1 ovarian = test system: IGROV1 ovarian
RPMI-8226 leukemia = test system: RPMI-8226 leukemia
SK-MEL-5 melanoma = test system: SK-MEL-5 melanoma

With `CN1CCN(CCS(=O)(=O)Nc2cc(-c3ccc4ncnc(Nc5ccc(F)c(Cl)c5)c4c3)cnc2Cl)CC1` the GI50 (MALME-3M melanoma) was 0.726 µM, the TGI (MALME-3M melanoma) was 5.76 µM and the GI50 (OVCAR-8 ovarian) was 3.73 µM. For the same molecule, the TGI (OVCAR-8 ovarian) was 23.1 µM, the GI50 (HOP-92 NSCLC) was 0.675 µM and the TGI (HOP-92 NSCLC) was 7.13 µM. For the same molecule, the GI50 (ACHN renal) was 3.67 µM, the TGI (ACHN renal) was > 100 µM and the GI50 (NCI-H522 lung) was 1.96 µM. The TGI (NCI-H522 lung) was 11.3 µM, the GI50 (HCT-15 colon) was 4.38 µM and the TGI (HCT-15 colon) was 43.6 µM. The GI50 (NCI-H460 lung) was 5.85 µM, the TGI (NCI-H460 lung) was > 100 µM and the GI50 (SK-MEL-2 melanoma) was 2.32 µM. For the same molecule, the TGI (SK-MEL-2 melanoma) was 7.79 µM, the GI50 (RXF 393 renal) was 0.784 µM and the TGI (RXF 393 renal) was 3.85 µM. The GI50 (SK-MEL-28 melanoma) was 2.39 µM, the TGI (SK-MEL-28 melanoma) was 37.4 µM and the GI50 (OVCAR-5 ovarian) was 2.56 µM. For the same molecule, the TGI (OVCAR-5 ovarian) was 27 µM, the GI50 (SF-539 CNS) was 1.82 µM and the TGI (SF-539 CNS) was 6.8 µM. For the same molecule, the GI50 (HOP-62 NSCLC) was 2.04 µM, the TGI (HOP-62 NSCLC) was 38.4 µM and the GI50 (NCI-H226 lung) was 1.96 µM. The TGI (NCI-H226 lung) was > 100 µM, the GI50 (HT29 colon) was 3.87 µM and the TGI (HT29 colon) was 21.5 µM. It also gave a GI50 (A549 NSCLC) of 11.1 µM, a TGI (A549 NSCLC) of 49.9 µM and a GI50 (MDA-MB-435) of 3.11 µM. For the same molecule, the TGI (MDA-MB-435) was 16 µM, the GI50 (SNB-19 CNS) was 1.97 µM and the TGI (SNB-19 CNS) was > 100 µM. For the same molecule, the GI50 (786-0 renal) was 1.84 µM, the TGI (786-0 renal) was > 100 µM and the GI50 (T-47D breast) was 0.221 µM. It also gave a TGI (T-47D breast) of 3.12 µM, a GI50 (M14 melanoma) of 3.34 µM and a TGI (M14 melanoma) of 20.5 µM. The GI50 (A498 renal) was 1.03 µM, the TGI (A498 renal) was 4.4 µM and the GI50 (HL-60(TB) leukemia) was 0.658 µM. The TGI (HL-60(TB) leukemia) was 23.7 µM, the GI50 (U251 CNS) was 3.12 µM and the TGI (U251 CNS) was > 100 µM. For the same molecule, the GI50 (MDA-MB-231 breast) was 1.74 µM, the TGI (MDA-MB-231 breast) was 4.13 µM and the GI50 (LOX IMVI melanoma) was 1.17 µM. For the same molecule, the TGI (LOX IMVI melanoma) was 2.92 µM, the GI50 (UACC-257 melanoma) was 3.02 µM and the TGI (UACC-257 melanoma) was 17.2 µM. The GI50 (IGROV1 ovarian) was 0.686 µM, the TGI (IGROV1 ovarian) was 2.93 µM and the GI50 (RPMI-8226 leukemia) was 13.5 µM. The TGI (RPMI-8226 leukemia) was 38 µM and the GI50 (SK-MEL-5 melanoma) was 1.61 µM.
